Patent US20260062387A1, “SALT-INDUCIBLE KINASE INHIBITOR COMPOUND AND PHARMACEUTICAL COMPOSITION INCLUDING THE SAME” (MITSUBISHI TANABE PHARMA CORPORATION, priority 2023, published 2026)

Key:
Format in all cases: biochemical
GST-tagged SIK1 = GST-tagged SIK1 (Homo sapiens (Human), UniProt P57059); assay: SIK1 inhibition test (ADP-Glo Max Assay); details: enzyme 20 nM, AMARA Peptide 200 μM, ATP 1 mM, 2 hours room temperature
Summary of the method: (§1)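 ADP formed was detected by luciferase luminescence after a 2 h room-temperature reaction with 1 mM ATP, 5 mM MgCl2 and AMARA peptide at 200 μM (SIK1, SIK2) or 100 μM (SIK3). Final GST-enzyme levels were 20 nM SIK1, 3 nM SIK2 and 100 nM SIK3. IC50 came from 16-point concentration-response data.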

GST-tagged SIK2 = GST-tagged SIK2 (Homo sapiens (Human), UniProt Q9H0K1); assay: SIK2 inhibition test (ADP-Glo Max Assay); details: enzyme 3 nM, AMARA Peptide 200 μM, ATP 1 mM, 2 hours room temperature
Summary of the method: as §1

GST-tagged SIK3 = GST-tagged SIK3 (Homo sapiens (Human), UniProt Q9Y2K2); assay: SIK3 inhibition test (ADP-Glo Max Assay); details: enzyme 100 nM, AMARA Peptide 100 μM, ATP 1 mM, 2 hours room temperature
Summary of the method: as §1

GST-tagged SIK2, sequence (Q9H0K1 whole entry): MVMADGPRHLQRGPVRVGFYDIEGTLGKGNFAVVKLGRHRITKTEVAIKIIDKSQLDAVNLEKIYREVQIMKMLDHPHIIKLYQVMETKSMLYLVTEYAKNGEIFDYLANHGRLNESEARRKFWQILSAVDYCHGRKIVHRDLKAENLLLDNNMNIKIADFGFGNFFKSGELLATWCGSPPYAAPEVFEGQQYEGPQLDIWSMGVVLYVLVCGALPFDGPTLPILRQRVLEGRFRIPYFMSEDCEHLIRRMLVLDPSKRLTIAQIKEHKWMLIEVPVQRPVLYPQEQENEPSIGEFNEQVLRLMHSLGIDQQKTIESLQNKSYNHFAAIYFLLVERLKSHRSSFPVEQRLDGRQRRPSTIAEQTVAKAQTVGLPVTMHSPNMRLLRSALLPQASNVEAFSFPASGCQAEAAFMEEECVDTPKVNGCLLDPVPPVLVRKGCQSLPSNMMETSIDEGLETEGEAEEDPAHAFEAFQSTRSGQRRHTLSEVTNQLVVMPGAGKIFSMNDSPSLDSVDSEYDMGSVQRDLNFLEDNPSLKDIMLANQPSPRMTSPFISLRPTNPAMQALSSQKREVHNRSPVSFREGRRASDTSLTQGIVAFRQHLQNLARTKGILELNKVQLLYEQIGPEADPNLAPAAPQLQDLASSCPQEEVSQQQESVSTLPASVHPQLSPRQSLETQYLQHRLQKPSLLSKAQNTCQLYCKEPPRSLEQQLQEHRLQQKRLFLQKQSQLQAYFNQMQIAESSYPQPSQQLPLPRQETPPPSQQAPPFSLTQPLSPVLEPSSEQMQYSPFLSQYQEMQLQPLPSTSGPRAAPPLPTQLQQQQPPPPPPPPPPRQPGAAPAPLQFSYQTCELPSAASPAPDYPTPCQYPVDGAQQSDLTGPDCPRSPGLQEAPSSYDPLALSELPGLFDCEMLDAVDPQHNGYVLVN
GST-tagged SIK1, sequence (P57059 whole entry): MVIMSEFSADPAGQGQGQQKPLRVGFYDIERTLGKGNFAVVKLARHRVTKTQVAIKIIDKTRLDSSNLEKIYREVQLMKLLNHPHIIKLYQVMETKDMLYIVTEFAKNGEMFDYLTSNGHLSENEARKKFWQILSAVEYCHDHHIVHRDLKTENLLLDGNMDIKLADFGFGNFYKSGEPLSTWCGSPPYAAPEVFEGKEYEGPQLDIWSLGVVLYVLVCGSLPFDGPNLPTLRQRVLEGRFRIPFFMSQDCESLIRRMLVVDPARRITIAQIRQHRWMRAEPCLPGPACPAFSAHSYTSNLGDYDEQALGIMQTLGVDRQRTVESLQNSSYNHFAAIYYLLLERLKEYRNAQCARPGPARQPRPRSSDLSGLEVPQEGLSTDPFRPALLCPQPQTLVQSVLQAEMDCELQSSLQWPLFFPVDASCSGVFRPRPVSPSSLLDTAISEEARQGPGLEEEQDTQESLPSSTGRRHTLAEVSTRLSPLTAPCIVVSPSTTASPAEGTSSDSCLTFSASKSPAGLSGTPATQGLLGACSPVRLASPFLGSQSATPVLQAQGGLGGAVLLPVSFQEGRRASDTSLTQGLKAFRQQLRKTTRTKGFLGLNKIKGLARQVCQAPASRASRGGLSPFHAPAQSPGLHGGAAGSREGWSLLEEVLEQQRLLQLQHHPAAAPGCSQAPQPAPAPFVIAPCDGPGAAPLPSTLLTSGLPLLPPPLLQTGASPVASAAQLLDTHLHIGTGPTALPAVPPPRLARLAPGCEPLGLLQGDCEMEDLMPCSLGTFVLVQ
GST-tagged SIK3, sequence (Q9Y2K2 whole entry): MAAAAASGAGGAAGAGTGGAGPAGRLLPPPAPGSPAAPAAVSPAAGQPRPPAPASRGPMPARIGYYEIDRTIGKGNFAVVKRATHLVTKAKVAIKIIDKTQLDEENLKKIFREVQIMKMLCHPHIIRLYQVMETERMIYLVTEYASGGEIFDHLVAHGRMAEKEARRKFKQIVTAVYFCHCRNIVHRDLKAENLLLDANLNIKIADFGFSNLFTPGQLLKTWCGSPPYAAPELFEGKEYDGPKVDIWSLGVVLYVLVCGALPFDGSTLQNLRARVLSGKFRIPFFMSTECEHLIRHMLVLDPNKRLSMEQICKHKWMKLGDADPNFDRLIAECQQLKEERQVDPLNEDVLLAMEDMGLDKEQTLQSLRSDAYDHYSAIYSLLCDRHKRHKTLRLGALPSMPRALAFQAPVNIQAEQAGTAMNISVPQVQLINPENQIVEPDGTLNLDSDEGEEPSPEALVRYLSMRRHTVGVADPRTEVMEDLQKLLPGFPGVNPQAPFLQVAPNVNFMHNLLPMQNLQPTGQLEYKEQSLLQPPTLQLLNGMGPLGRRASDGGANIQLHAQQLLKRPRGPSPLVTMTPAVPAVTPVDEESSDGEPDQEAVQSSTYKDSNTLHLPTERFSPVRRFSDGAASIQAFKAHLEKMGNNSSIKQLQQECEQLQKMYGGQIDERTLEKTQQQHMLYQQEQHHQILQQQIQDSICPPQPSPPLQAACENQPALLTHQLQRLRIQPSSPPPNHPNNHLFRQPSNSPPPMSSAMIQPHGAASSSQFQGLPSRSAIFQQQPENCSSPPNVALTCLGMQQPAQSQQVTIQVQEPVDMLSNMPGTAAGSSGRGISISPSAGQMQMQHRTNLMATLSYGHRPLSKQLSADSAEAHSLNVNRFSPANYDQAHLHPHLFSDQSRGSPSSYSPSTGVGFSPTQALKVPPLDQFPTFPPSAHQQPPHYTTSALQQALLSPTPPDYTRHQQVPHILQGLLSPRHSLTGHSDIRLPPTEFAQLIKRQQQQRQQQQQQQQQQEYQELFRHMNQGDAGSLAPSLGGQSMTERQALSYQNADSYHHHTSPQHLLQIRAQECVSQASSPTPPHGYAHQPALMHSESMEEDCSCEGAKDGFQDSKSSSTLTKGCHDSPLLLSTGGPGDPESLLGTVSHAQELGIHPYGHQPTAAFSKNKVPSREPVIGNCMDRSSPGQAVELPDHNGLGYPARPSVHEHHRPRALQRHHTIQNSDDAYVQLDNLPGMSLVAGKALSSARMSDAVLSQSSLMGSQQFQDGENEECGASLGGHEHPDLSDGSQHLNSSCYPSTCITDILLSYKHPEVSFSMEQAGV

| Compound | IC50 (GST-tagged SIK1) | IC50 (GST-tagged SIK2) | IC50 (GST-tagged SIK3) |
| --- | --- | --- | --- |
| CCn1cc(-c2cc(C(F)F)c3c(-c4cc(OC)c(C(N)=O)c(OC(F)F)c4)n(C)nc3c2)cn1 [Example 112, 2-(difluoromethoxy)-4-[4-(difluoromethyl)-6-(1-ethylpyrazol-4-yl)-2-methylindazol-3-yl]-6-methoxybenzamide] | 16.6 nM | 13.7 nM | 3 nM |
| CCCn1cc(-c2cc(C(F)F)c3c(-c4cc(OC)c(C(N)=O)c(OC(F)F)c4)n(C)nc3c2)cn1 [Example 113, 2-(difluoromethoxy)-4-[4-(difluoromethyl)-2-methyl-6-(1-propylpyrazol-4-yl)indazol-3-yl]-6-methoxybenzamide] | 19.7 nM | 15.6 nM | 2.7 nM |
| COc1cc(-c2c3c(C(F)F)cc(-c4cnn(CC5(O)CCC5)c4)cc3nn2C)cc(OC(F)F)c1C(=O)N[C@@H]1CC1(F)F [Example 117, N-[(1R)-2,2-difluorocyclopropyl]-2-(difluoromethoxy)-4-[4-(difluoromethyl)-6-[1-[(1-hydroxycyclobutyl)methyl]pyrazol-4-yl]-2-methylindazol-3-yl]-6-methoxybenzamide] | 12.5 nM | 9.3 nM | 1 nM |
| COc1cc(-c2c3c(C(F)F)cc(-c4cnn(CCC(C)(C)O)c4)cc3nn2C)cc(OC(F)F)c1C(=O)N[C@@H]1CC1(F)F [Example 119] | 3.9 nM | 2.6 nM | 0.7 nM |

Next, values leading:

| IC50 (GST-tagged SIK1) | IC50 (GST-tagged SIK2) | IC50 (GST-tagged SIK3) | Compound |
| --- | --- | --- | --- |
| 6.2 nM | 1.7 nM | 1.7 nM | COc1cc(-c2c3c(C#N)cc(-c4cnn(CCC(C)(C)O)c4)cc3nn2C)cc(OC(F)F)c1C(=O)N[C@@H]1CC1(F)F [Example 111, 4-[4-cyano-6-[1-(3-hydroxy-3-methylbutyl)pyrazo]-4-yl]-2-methylindazol-3-yl]-N-[(1R)-2,2-difluoro[cyclopropyl]-2-(difluoromethoxy)-6-methoxybenzamide] |
| 12.6 nM | 4.1 nM | 0.7 nM | COc1cc(-c2c3c(C#N)cc(-c4cnn(CC(C)(C)O)c4)cc3nn2C)cc(OC(F)F)c1C(=O)N[C@@H]1CC1(F)F [Example 114] |
| 9.4 nM | 2.4 nM | < 0.6 nM | COc1cc(-c2c3c(C#N)cc(-c4cnn(CC(F)F)c4)cc3nn2C)cc(OC(F)F)c1C(=O)N[C@@H]1CC1(F)F [Example 115, 4-[4-cyano-6-[1-(2,2-difluoroethyl)pyrazol-4-yl]-2-methylindazol-3-yl]-N-[(1R)-2,2-difluorocyclopropyl]-2-(difluoromethoxy)-6-methoxybenzamide] |
| 16.1 nM | 5.8 nM | 1.1 nM | CCn1cc(-c2cc(C(F)F)c3c(-c4cc(OC)c(C(=O)N[C@@H]5CC5(F)F)c(OC(F)F)c4)n(C)nc3c2)cn1 [Example 116, N-[(1R)-2,2-difluorocyclopropyl]-2-(difluoromethoxy)-4-[4-(difluoromethyl)-6-(1-ethylpyrazol-4-yl)-2-methylindazol-3-yl]-6-methoxybenzamide] |
| 5.3 nM | 1 nM | 0.6 nM | CCn1cc(-c2cc(C#N)c3c(-c4cc(OC)c(C(=O)N[C@@H]5CC5(F)F)c(OC(F)F)c4)n(C)nc3c2)cn1 [Example 118, 4-[4-cyano-6-(1-ethylpyrazol-4-yl)-2-methylindazol-3-yl]-N-[(1R)-2,2-difluorocyclopropyl]-2-(difluoromethoxy)-6-methoxybenzamide] |
| 7.8 nM | 3.5 nM | 0.7 nM | COc1cc(-c2c3c(C(F)F)cc(-c4cnn(CC[C@@H](C)O)c4)cc3nn2C)cc(OC(F)F)c1C(=O)N[C@@H]1CC1(F)F [Example 120, N-[(1R)-2,2-difluorocyclopropyl]-2-(difluoromethoxy)-4-[4-(difluoromethyl)-6-[1-[(3R)-3-hydroxybutyl]pyrazol-4-yl]-2-methylindazol-3-yl]-6-methoxybenzamide] |
